Laboratory results published in BindingDB's records for doi:10.1021/jm0703035 (Research Triangle Institute, 2007).

The compounds below were run against Sodium-dependent noradrenaline transporter (Homo sapiens, UniProt P23975) (assay: Ligand Binding Assay).
Sodium-dependent noradrenaline transporter, sequence (P23975 whole entry): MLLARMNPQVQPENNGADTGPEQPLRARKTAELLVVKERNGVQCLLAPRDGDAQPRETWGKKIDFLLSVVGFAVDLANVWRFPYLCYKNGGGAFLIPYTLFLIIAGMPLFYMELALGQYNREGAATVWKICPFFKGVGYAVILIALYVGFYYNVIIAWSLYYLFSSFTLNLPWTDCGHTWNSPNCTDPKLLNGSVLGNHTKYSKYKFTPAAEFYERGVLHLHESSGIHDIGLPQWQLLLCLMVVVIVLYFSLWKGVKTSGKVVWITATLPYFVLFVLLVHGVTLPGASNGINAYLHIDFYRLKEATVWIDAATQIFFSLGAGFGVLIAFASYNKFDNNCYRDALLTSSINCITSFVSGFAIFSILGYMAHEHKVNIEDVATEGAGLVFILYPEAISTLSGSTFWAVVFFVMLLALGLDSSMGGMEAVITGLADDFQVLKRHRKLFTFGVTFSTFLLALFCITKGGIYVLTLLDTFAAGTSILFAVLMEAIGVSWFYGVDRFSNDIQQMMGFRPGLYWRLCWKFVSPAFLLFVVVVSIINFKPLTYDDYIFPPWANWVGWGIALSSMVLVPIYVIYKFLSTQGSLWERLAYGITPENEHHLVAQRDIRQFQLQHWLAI
`Cc1ccc([C@H]2C[C@@H]3CC[C@H]([C@H]2c2ncc(-c4ccc(Cl)c(Cl)c4)s2)N3C)cc1` [5-(3,4-dichlorophenyl)-2-[(1R,2S,3S,5S)-8-methyl-3-(4-methylphenyl)-8-azabicyclo[3.2.1]octan-2-yl]-1,3-thiazole] gave an EC50 of 4000 nM.
In the case of `CN1[C@H]2CC[C@@H]1[C@@H](c1ncc(-c3ccccc3)s1)[C@@H](c1ccc(Cl)cc1)C2` [2-[(1R,2S,3S,5S)-3-(4-chlorophenyl)-8-methyl-8-azabicyclo[3.2.1]octan-2-yl]-5-phenyl-1,3-thiazole], the EC50 is reported as 750 nM.
For `COc1ccc(-c2cnc([C@H]3[C@@H](c4ccc(C)cc4)C[C@@H]4CC[C@H]3N4C)s2)cc1` [5-(4-methoxyphenyl)-2-[(1R,2S,3S,5S)-8-methyl-3-(4-methylphenyl)-8-azabicyclo[3.2.1]octan-2-yl]-1,3-thiazole], the EC50 was 1810 nM.

Each compound was assayed against Transporter (Rattus norvegicus, UniProt Q63380) (assay: Ligand Binding Assay).
Transporter, sequence (Q63380 whole entry): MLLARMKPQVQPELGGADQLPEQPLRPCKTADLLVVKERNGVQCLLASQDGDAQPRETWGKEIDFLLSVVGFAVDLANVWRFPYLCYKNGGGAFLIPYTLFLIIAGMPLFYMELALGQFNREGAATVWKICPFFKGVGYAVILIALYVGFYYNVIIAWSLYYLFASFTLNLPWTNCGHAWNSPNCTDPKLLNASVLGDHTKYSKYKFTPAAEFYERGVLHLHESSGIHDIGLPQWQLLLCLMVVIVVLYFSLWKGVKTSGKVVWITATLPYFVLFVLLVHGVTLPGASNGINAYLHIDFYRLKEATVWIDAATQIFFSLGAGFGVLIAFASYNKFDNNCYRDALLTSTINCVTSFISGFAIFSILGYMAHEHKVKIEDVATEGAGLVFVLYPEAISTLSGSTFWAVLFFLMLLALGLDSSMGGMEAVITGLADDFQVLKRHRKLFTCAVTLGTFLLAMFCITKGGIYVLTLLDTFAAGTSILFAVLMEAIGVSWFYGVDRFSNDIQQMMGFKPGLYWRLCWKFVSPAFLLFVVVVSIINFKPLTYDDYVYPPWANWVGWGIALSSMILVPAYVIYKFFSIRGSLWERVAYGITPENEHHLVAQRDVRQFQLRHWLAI
Procedure: Brains from male Sprague-Dawley rats were removed, dissected, and rapidly frozen. Ligand binding experiments were conducted in assay tubes containing radioligand, rat membrane tissue, and test compounds. Incubations were terminated by filtration with through GF/B filters. Results were analyzed using the Equilibrium Binding Data Analysis software (EBDA, Biosoft).
`CN1[C@H]2CC[C@@H]1[C@@H](c1ncc(-c3ccc([N+](=O)[O-])cc3)s1)[C@@H](c1ccc(Cl)cc1)C2` [2-[(1R,2S,3S,5S)-3-(4-chlorophenyl)-8-methyl-8-azabicyclo[3.2.1]octan-2-yl]-5-(4-nitrophenyl)-1,3-thiazole] gave a Ki greater than 2000 nM.
`COc1ccc(-c2cnc([C@H]3[C@@H](c4ccc(C)cc4)C[C@@H]4CC[C@H]3N4C)s2)cc1OC` [5-(3,4-dimethoxyphenyl)-2-[(1R,2S,3S,5S)-8-methyl-3-(4-methylphenyl)-8-azabicyclo[3.2.1]octan-2-yl]-1,3-thiazole] was tested, and the Ki was greater than 2000 nM.
`CN1[C@H]2CC[C@@H]1[C@@H](c1ncc(-c3cccc(Br)c3)s1)[C@@H](c1ccc(Cl)cc1)C2` [5-(3-bromophenyl)-2-[(1R,2S,3S,5S)-3-(4-chlorophenyl)-8-methyl-8-azabicyclo[3.2.1]octan-2-yl]-1,3-thiazole] showed a Ki greater than 2000 nM.
`Cc1ccc([C@H]2C[C@@H]3CC[C@H]([C@H]2c2ncc(-c4ccc(Cl)c(Cl)c4)s2)N3C)cc1` [5-(3,4-dichlorophenyl)-2-[(1R,2S,3S,5S)-8-methyl-3-(4-methylphenyl)-8-azabicyclo[3.2.1]octan-2-yl]-1,3-thiazole] was tested, and the Ki was greater than 2000 nM.
For `Cc1ccc([C@H]2C[C@@H]3CC[C@H]([C@H]2c2ncc(-c4cccc([N+](=O)[O-])c4)s2)N3C)cc1` [2-[(1R,2S,3S,5S)-8-methyl-3-(4-methylphenyl)-8-azabicyclo[3.2.1]octan-2-yl]-5-(3-nitrophenyl)-1,3-thiazole], the Ki was greater than 4300 nM.
For `Cc1ccc([C@H]2C[C@@H]3CC[C@H]([C@H]2c2ncc(-c4ccc(F)cc4)s2)N3C)cc1` [5-(4-fluorophenyl)-2-[(1R,2S,3S,5S)-8-methyl-3-(4-methylphenyl)-8-azabicyclo[3.2.1]octan-2-yl]-1,3-thiazole], the Ki was greater than 2000 nM.
`CN1[C@H]2CC[C@@H]1[C@@H](c1ncc(-c3ccc(Cl)cc3)s1)[C@@H](c1ccc(Cl)cc1)C2` [5-(4-chlorophenyl)-2-[(1R,2S,3S,5S)-3-(4-chlorophenyl)-8-methyl-8-azabicyclo[3.2.1]octan-2-yl]-1,3-thiazole] gave a Ki greater than 2000 nM.
`CN1[C@H]2CC[C@@H]1[C@@H](c1ncc(-c3ccc(F)cc3)s1)[C@@H](c1ccc(Cl)cc1)C2` [2-[(1R,2S,3S,5S)-3-(4-chlorophenyl)-8-methyl-8-azabicyclo[3.2.1]octan-2-yl]-5-(4-fluorophenyl)-1,3-thiazole] gave a Ki greater than 2000 nM.
`CN1[C@H]2CC[C@@H]1[C@@H](c1ncc(-c3cccc([N+](=O)[O-])c3)s1)[C@@H](c1ccc(Cl)cc1)C2` [2-[(1R,2S,3S,5S)-3-(4-chlorophenyl)-8-methyl-8-azabicyclo[3.2.1]octan-2-yl]-5-(3-nitrophenyl)-1,3-thiazole] was tested, and the Ki was greater than 2000 nM.
With `Cc1ccc([C@H]2C[C@@H]3CC[C@H]([C@H]2c2ncc(-c4cccc(Br)c4)s2)N3C)cc1` [5-(3-bromophenyl)-2-[(1R,2S,3S,5S)-8-methyl-3-(4-methylphenyl)-8-azabicyclo[3.2.1]octan-2-yl]-1,3-thiazole] the Ki was greater than 2000 nM.
`Cc1ccc([C@H]2C[C@@H]3CC[C@H]([C@H]2c2ncc(-c4ccc([N+](=O)[O-])cc4)s2)N3C)cc1` [2-[(1R,2S,3S,5S)-8-methyl-3-(4-methylphenyl)-8-azabicyclo[3.2.1]octan-2-yl]-5-(4-nitrophenyl)-1,3-thiazole] showed a Ki greater than 2000 nM.
`Cc1ccc([C@H]2C[C@@H]3CC[C@H]([C@H]2c2ncc(-c4ccc(Cl)cc4)s2)N3C)cc1` [5-(4-chlorophenyl)-2-[(1R,2S,3S,5S)-8-methyl-3-(4-methylphenyl)-8-azabicyclo[3.2.1]octan-2-yl]-1,3-thiazole] was tested, and the Ki was greater than 2000 nM.
For `COc1ccc(-c2cnc([C@H]3[C@@H](c4ccc(Cl)cc4)C[C@@H]4CC[C@H]3N4C)s2)cc1` [2-[(1R,2S,3S,5S)-3-(4-chlorophenyl)-8-methyl-8-azabicyclo[3.2.1]octan-2-yl]-5-(4-methoxyphenyl)-1,3-thiazole], the Ki was greater than 2000 nM.
`CN1[C@H]2CC[C@@H]1[C@@H](c1ncc(-c3ccc(Cl)c(Cl)c3)s1)[C@@H](c1ccc(Cl)cc1)C2` [2-[(1R,2S,3S,5S)-3-(4-chlorophenyl)-8-methyl-8-azabicyclo[3.2.1]octan-2-yl]-5-(3,4-dichlorophenyl)-1,3-thiazole] gave a Ki greater than 2000 nM.
`COc1ccc(-c2cnc([C@H]3[C@@H](c4ccc(C)cc4)C[C@@H]4CC[C@H]3N4C)s2)cc1` [5-(4-methoxyphenyl)-2-[(1R,2S,3S,5S)-8-methyl-3-(4-methylphenyl)-8-azabicyclo[3.2.1]octan-2-yl]-1,3-thiazole] was tested, and the Ki was greater than 2000 nM.
Work on `COc1ccc(-c2cnc([C@H]3[C@@H](c4ccc(Cl)cc4)C[C@@H]4CC[C@H]3N4C)s2)cc1OC` [2-[(1R,2S,3S,5S)-3-(4-chlorophenyl)-8-methyl-8-azabicyclo[3.2.1]octan-2-yl]-5-(3,4-dimethoxyphenyl)-1,3-thiazole] yielded a Ki greater than 2000 nM.
`CN1[C@H]2CC[C@@H]1[C@@H](c1ncc(-c3ccc(Br)cc3)s1)[C@@H](c1ccc(Cl)cc1)C2` [5-(4-bromophenyl)-2-[(1R,2S,3S,5S)-3-(4-chlorophenyl)-8-methyl-8-azabicyclo[3.2.1]octan-2-yl]-1,3-thiazole] was tested, and the Ki was greater than 2000 nM.
